Measured values reported in patent US20260028326A1, “COMPOUND BASED ON ISOINDOLINE-SUBSTITUTED GLUTARIMIDE BACKBONE AND USE THEREOF” (GLUETACS THERAPEUTICS (SHANGHAI) CO., LTD., priority 2022, published 2026).
pIC50: −log10 of the molar value. Values belong to the molecule of their own block, whether it stands above or below them.

What was measured:
[1] = target: GSPT1 protein (Homo sapiens (Human), UniProt P15170+Q96SW2); test: Western-blot assay of substrate protein degradation in hPBMC, GSPT1; format: cell-based; conditions: for residual substrate protein level, GSPT1: hPBMC cells, compound 500 nM, 24 hours, Western blot
[2] = target: IKZF3 protein (Homo sapiens (Human), UniProt Q96SW2+Q9UKT9); test: Western-blot assay of substrate protein degradation in hPBMC, IKZF3; format: cell-based; conditions: for residual substrate protein level, IKZF3: hPBMC cells, compound 500 nM, 24 hours, Western blot
[3] = system: MM.1S cells; test: Tumor cell proliferation IC50 (CCK-8), MM.1S; conditions: Homo sapiens, MM1.S, 72 h, read-out: IC50 for inhibiting the proliferation of tumor cells, MM.1S;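 note: viability of cultured cells read by CCK-8 reagent after compound exposure, growth inhibition curves fitted to derive IC50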
[4] = target: IKZF1 protein (Homo sapiens (Human), UniProt Q13422+Q96SW2); test: Western-blot assay of substrate protein degradation in hPBMC, IKZF1; format: cell-based; conditions: for residual substrate protein level, IKZF1: hPBMC cells, compound 500 nM, 24 hours, Western blot
[5] = target: human Cereblon WT GST-tagged protein (Homo sapiens (Human), UniProt Q96SW2); test: CRBN-binding affinity, HTRF (CEREBLON BINDING kit)
How it was run: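 GST-tagged human WT Cereblon incubated with compound, then Thalidomide-Re tracer and anti-GST Eu antibody added. Displacement read by HTRF, reported as CRBN binding inhibition rate against blank control wells without protein.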

[6] = system: Mino cells; test: Tumor cell proliferation IC50 (CCK-8), Mino; conditions: Homo sapiens, 72 h, read-out: IC50 for inhibiting the proliferation of tumor cells, Mino;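 note: cell viability assessed with CCK-8 reagent after compound exposure, IC50 derived from plotted growth inhibition curves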
[7] = hPBMC, 24 h, serially diluted 0.03-1000 nM

Sequence of GSPT1 protein (P15170 whole entry): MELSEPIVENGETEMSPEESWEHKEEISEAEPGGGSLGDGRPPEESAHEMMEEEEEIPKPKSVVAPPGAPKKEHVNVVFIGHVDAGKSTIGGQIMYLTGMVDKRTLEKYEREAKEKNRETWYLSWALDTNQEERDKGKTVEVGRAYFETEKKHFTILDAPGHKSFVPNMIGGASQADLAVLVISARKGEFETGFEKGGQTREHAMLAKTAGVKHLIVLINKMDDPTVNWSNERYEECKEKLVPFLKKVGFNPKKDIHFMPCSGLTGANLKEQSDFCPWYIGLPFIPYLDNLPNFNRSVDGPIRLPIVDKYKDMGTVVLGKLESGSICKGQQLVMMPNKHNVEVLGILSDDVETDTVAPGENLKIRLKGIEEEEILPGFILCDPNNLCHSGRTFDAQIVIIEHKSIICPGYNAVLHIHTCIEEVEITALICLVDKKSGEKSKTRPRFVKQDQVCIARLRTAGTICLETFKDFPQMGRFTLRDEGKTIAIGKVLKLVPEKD
Sequence of GSPT1 protein (Q96SW2 whole entry): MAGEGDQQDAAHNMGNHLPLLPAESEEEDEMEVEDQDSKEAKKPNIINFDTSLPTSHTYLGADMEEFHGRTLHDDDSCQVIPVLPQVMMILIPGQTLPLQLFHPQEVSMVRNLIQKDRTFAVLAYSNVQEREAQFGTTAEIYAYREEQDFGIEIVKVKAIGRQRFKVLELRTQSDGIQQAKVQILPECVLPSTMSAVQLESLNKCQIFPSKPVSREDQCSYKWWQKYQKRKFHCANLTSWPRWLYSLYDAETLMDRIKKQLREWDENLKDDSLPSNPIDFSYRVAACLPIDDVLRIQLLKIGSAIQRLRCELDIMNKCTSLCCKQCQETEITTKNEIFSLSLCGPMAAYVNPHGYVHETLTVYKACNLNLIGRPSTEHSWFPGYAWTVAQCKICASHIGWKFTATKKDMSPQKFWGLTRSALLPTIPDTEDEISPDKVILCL
Sequence of GSPT1 protein (Q16531 whole entry partner): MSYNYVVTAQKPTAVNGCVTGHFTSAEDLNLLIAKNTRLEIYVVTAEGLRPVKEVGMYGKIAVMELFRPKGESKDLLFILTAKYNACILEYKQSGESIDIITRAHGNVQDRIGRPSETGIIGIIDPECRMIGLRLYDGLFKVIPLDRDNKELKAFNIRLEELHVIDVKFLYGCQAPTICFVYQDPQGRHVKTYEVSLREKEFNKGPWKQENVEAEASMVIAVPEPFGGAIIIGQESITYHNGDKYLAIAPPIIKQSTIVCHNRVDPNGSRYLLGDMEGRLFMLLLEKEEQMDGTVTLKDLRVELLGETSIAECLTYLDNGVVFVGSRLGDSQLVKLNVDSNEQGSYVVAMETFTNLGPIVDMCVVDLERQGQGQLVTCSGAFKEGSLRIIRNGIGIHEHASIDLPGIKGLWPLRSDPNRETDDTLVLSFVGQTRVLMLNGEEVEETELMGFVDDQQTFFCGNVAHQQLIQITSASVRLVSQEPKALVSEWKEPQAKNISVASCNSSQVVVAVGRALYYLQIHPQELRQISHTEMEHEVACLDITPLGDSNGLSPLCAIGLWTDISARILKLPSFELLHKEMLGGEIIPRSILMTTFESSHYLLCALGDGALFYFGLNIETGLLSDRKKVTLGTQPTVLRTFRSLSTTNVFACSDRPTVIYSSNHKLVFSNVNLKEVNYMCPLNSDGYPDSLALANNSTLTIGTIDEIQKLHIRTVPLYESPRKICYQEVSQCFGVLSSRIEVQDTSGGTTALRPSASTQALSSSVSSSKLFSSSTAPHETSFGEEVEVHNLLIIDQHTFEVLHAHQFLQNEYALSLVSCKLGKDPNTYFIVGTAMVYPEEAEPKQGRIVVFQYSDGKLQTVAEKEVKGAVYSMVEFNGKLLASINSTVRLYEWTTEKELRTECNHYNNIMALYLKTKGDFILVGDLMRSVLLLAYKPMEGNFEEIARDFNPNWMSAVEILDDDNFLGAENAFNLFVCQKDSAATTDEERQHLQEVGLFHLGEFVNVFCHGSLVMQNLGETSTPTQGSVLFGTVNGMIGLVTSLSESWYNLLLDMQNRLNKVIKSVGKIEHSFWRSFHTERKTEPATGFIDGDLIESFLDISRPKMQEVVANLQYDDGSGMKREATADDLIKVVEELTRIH
Sequence of human Cereblon WT GST-tagged protein (Q96SW2 whole entry): as the sequence (Q96SW2 whole entry) above
Sequence of IKZF3 protein (Q9UKT9 whole entry): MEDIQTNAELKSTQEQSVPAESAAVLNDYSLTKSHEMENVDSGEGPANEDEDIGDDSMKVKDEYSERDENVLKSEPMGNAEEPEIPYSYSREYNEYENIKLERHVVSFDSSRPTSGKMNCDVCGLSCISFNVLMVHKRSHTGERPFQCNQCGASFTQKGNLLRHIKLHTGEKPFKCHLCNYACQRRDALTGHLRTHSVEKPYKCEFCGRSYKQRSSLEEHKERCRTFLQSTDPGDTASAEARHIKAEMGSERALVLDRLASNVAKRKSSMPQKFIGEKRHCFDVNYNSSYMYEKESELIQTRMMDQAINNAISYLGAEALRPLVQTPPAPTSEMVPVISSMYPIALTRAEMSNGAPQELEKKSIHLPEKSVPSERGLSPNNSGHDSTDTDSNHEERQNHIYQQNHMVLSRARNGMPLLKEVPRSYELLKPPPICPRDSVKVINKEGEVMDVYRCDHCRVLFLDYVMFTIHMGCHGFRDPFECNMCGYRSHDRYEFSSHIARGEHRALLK
Sequence of IKZF3 protein (Q96SW2 whole entry): as the sequence (Q96SW2 whole entry) above
Sequence of IKZF3 protein (Q16531 whole entry partner): as the sequence (Q16531 whole entry partner) above
Sequence of IKZF1 protein (Q13422 whole entry): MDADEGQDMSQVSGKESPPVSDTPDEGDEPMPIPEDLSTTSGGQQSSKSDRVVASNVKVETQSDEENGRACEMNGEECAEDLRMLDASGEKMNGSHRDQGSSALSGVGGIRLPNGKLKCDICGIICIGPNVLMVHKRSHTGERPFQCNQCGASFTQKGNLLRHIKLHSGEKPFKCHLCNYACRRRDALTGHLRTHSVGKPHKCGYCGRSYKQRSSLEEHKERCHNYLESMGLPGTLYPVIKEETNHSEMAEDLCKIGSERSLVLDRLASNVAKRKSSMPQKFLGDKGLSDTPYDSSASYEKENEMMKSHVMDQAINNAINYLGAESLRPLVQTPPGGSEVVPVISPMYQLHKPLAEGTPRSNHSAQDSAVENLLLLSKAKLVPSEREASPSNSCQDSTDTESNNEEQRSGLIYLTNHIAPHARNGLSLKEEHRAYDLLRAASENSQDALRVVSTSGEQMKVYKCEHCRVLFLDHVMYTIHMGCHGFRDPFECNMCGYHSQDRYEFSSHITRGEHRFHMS
Sequence of IKZF1 protein (Q96SW2 whole entry): as the sequence (Q96SW2 whole entry) above
Sequence of IKZF1 protein (Q16531 whole entry partner): as the sequence (Q16531 whole entry partner) above

Compound: O=C1CCC(N2C(=O)c3ccc(CN4CCN(Cc5ccc(-c6ccc(Cl)cc6)cc5)CC4)cc3C2=O)C(=O)N1 (stereo not drawn) [GT-05599, 5-((4-((4′-chloro-[1,1′-biphenyl]-4-yl)methyl)piperazin-1-yl)methyl)-2-(2,6-dioxopiperidin-3-yl)isoindoline-1,3-dione]
residual substrate protein level, GSPT1 [1]: B (B represents a residual substrate protein level of >50%)
residual substrate protein level, IKZF3 [2]: A (A represents a residual substrate protein level of <50%)
pIC50 [3]: 6.00 to 6.30
residual substrate protein level, IKZF1 [4]: A (A represents a residual substrate protein level of <50%)
pIC50 [5]: 5.78
pIC50 [6]: 6.30 to 7.00

Compound: O=C1CCC(N2Cc3cc(CN4CCN(Cc5ccc(-c6ccc(Cl)cn6)cc5)CC4)ccc3C2=O)C(=O)N1 (stereo not drawn) [GT-05872, 3-(5-((4-(4-(5-chloropyridin-2-yl)benzyl)piperazin-1-yl)methyl)-1-oxoisoindolin-2-yl)piperidine-2,6-dione]
residual substrate protein level, GSPT1 [1]: B (B represents a residual substrate protein level of >50%)
residual substrate protein level, IKZF3 [2]: B (B represents a residual substrate protein level of >50%)
pIC50 [3]: 6.00 to 6.30
residual substrate protein level, IKZF1 [4]: A (A represents a residual substrate protein level of <50%)

Compound: CC1(C)CCC(CN2C3CC2CN(Cc2ccc4c(c2F)CN(C2CCC(=O)NC2=O)C4=O)C3)=C(c2ccc(Cl)cc2)C1 (stereo not drawn) [GT-05529, 3-(5-((6-((4′-chloro-5,5-dimethyl-3,4,5,6-tetrahydro-[1,1′-biphenyl]-2-yl)methyl)-3,6-diazabicyclo[3.1.1]heptan-3-yl)methyl)-4-fluoro-1-oxoisoindolin-2-yl)piperidine-2,6-dione]
residual substrate protein level, GSPT1 [1]: B (B represents a residual substrate protein level of >50%)
residual substrate protein level, IKZF3 [2]: A (A represents a residual substrate protein level of <50%)
pIC50 [3]: 6.30 to 7.00
residual substrate protein level, IKZF1 [4]: A (A represents a residual substrate protein level of <50%)
pIC50 [5]: 6.46
pIC50 [6]: 6.00 to 6.30

Compound: CC1(C)CCC(CN2CC3CC(C2)N3Cc2cc(F)c3c(c2)CN(C2CCC(=O)NC2=O)C3=O)=C(c2ccc(Cl)cc2)C1 (stereo not drawn) [GT-05383, 3-(5-((3-((4′-chloro-5,5-dimethyl-3,4,5,6-tetrahydro-[1,1′-biphenyl]-2-yl)methyl)-3,6-diazabicyclo[3.1.1]heptan-6-yl)methyl)-7-fluoro-1-oxoisoindolin-2-yl)piperidine-2,6-dione]
residual substrate protein level, GSPT1 [1]: A (A represents a residual substrate protein level of <50%)
residual substrate protein level, IKZF3 [2]: B (B represents a residual substrate protein level of >50%)
pIC50 [3]: 6.00 to 6.30
residual substrate protein level, IKZF1 [4]: B (B represents a residual substrate protein level of >50%)
pIC50 [5]: 6.27

Compound: O=C1CCC(N2Cc3c(ccc(CN4CCN(C(=O)c5ccccc5-c5ccc(Cl)cc5)CC4)c3F)C2=O)C(=O)N1 (stereo not drawn) [GT-05649, 3-(5-((4-(4′-chloro-[1,1′-biphenyl]-2-carbonyl)piperazin-1-yl)methyl)-4-fluoro-1-oxoisoindolin-2-yl)piperidine-2,6-dione]
residual substrate protein level, GSPT1 [1]: B (B represents a residual substrate protein level of >50%)
residual substrate protein level, IKZF3 [2]: A (A represents a residual substrate protein level of <50%)
pIC50 [3]: 6.30 to 7.00
residual substrate protein level, IKZF1 [4]: B (B represents a residual substrate protein level of >50%)
pIC50 [5]: 6.17
pIC50 [6]: 6.30 to 7.00

Compound: O=C1CCC(N2Cc3cc(CN4C5CCC4CN(C(=O)c4ccccc4-c4ccc(Cl)cc4)C5)ccc3C2=O)C(=O)N1 (stereo not drawn) [GT-05788, 3-(5-((3-(4′-chloro-[1,1′-biphenyl]-2-carbonyl)-3,8-diazabicyclo[3.2.1]octan-8-yl)methyl)-1-oxoisoindolin-2-yl)piperidine-2,6-dione]
pIC50 [3]: 7.00 to 7.30
pIC50 [5]: 6.30
pIC50 [6]: 6.30 to 7.00

Now from value to molecule, other results behind:

pIC50 [3]: 6.30 to 7.00
pIC50 [5]: 6.23
Compound: CC1(C)CCC(CN2CCCN(Cc3ccc4c(c3)CN(C3CCC(=O)NC3=O)C4=O)CC2)=C(c2ccc(Cl)cc2)C1 (stereo not drawn) [GT-05396, 3-(5-((4-((4′-chloro-5,5-dimethyl-3,4,5,6-tetrahydro-[1,1′-biphenyl]-2-yl)methyl)-1,4-diazepan-1-yl)methyl)-1-oxoisoindolin-2-yl)piperidine-2,6-dione]
residual substrate protein level, GSPT1 [1]: A (A represents a residual substrate protein level of <50%)
residual substrate protein level, IKZF3 [2]: A (A represents a residual substrate protein level of <50%)
residual substrate protein level, IKZF1 [4]: B (B represents a residual substrate protein level of >50%)

pIC50 [3]: 6.30 to 7.00
pIC50 [5]: 6.64
pIC50 [6]: 6.30 to 7.00
Compound: O=C1CCC(N2Cc3cc(CN4CCN(C(=O)c5ccccc5-c5ccc(Cl)cc5)CC4)ccc3C2=O)C(=O)N1 (stereo not drawn) [GT-03891, 3-(5-((4-(4′-chloro-[1,1′-biphenyl]-2-carbonyl)piperazin-1-yl)methyl)-1-oxoisoindolin-2-yl)piperidine-2,6-dione]

pIC50 [3]: 6.30 to 7.00
pIC50 [5]: 6.08
pIC50 [6]: 8.00 to 8.30
Compound: O=C1CCC(N2Cc3cc(CN4CCN(Cc5cnc(-c6ccccc6)cn5)CC4)ccc3C2=O)C(=O)N1 (stereo not drawn) [GT-05544, 3-(1-oxo-5-((4-((5-phenylpyrazin-2-yl)methyl)piperazin-1-yl)methyl)isoindolin-2-yl)piperidine-2,6-dione]
residual substrate protein level, GSPT1 [1]: B (B represents a residual substrate protein level of >50%)
residual substrate protein level, IKZF3 [2]: A (A represents a residual substrate protein level of <50%)
residual substrate protein level, IKZF1 [4]: A (A represents a residual substrate protein level of <50%)

pIC50 [3]: 6.30 to 7.00
pIC50 [5]: 6.00
pIC50 [6]: 6.30 to 7.00
Compound: O=C1CCC(N2Cc3cc(CN4CCN(Cc5ccccc5-c5cnco5)CC4)ccc3C2=O)C(=O)N1 (stereo not drawn) [GT-05849, 3-(5-((4-(2-(oxazol-5-yl)benzyl)piperazin-1-yl)methyl)-1-oxoisoindolin-2-yl)piperidine-2,6-dione]
residual substrate protein level, GSPT1 [1]: A (A represents a residual substrate protein level of <50%)
residual substrate protein level, IKZF3 [2]: A (A represents a residual substrate protein level of <50%)
residual substrate protein level, IKZF1 [4]: A (A represents a residual substrate protein level of <50%)

pIC50 [3]: 6.30 to 7.00
pIC50 [5]: 6.15
Compound: CC1(C)CCC(C(=O)N2CCC3(CC2)CN(Cc2ccc4c(c2)CN(C2CCC(=O)NC2=O)C4=O)C3)=C(c2ccc(Cl)cc2)C1 (stereo not drawn) [GT-05656, 3-(5-((7-(4′-chloro-5,5-dimethyl-3,4,5,6-tetrahydro-[1,1′-biphenyl]-2-carbonyl)-2,7-diazaspiro[3.5]nonan-2-yl)methyl)-1-oxoisoindolin-2-yl)piperidine-2,6-dione]
residual substrate protein level, GSPT1 [1]: B (B represents a residual substrate protein level of >50%)
residual substrate protein level, IKZF3 [2]: A (A represents a residual substrate protein level of <50%)
residual substrate protein level, IKZF1 [4]: B (B represents a residual substrate protein level of >50%)

pIC50 [3]: 7.00 to 7.30
pIC50 [5]: 5.91
Compound: CC1(C)CCC(CN2CCC3(CC2)CN(Cc2ccc4c(c2)CN(C2CCC(=O)NC2=O)C4=O)C3)=C(c2ccc(Cl)cc2)C1 (stereo not drawn) [GT-05677, 3-(5-((7-((4′-chloro-5,5-dimethyl-3,4,5,6-tetrahydro-[1,1′-biphenyl]-2-yl)methyl)-2,7-diazaspiro[3.5]nonan-2-yl)methyl)-1-oxoisoindolin-2-yl)piperidine-2,6-dione]
residual substrate protein level, GSPT1 [1]: B (B represents a residual substrate protein level of >50%)
residual substrate protein level, IKZF3 [2]: A (A represents a residual substrate protein level of <50%)
residual substrate protein level, IKZF1 [4]: A (A represents a residual substrate protein level of <50%)

pIC50 [3]: 6.30 to 7.00
pIC50 [5]: 6.21
pIC50 [6]: 6.00 to 6.30
Compound: Cn1nccc1-c1ccccc1CN1CCN(Cc2ccc3c(c2)CN(C2CCC(=O)NC2=O)C3=O)CC1 (stereo not drawn) [GT-05702, 3-(5-((4-(2-(1-methyl-1H-pyrazol-5-yl)benzyl)piperazin-1-yl)methyl)-1-oxoisoindolin-2-yl)piperidine-2,6-dione]
residual substrate protein level, GSPT1 [1]: A (A represents a residual substrate protein level of <50%)
residual substrate protein level, IKZF3 [2]: A (A represents a residual substrate protein level of <50%)
residual substrate protein level, IKZF1 [4]: A (A represents a residual substrate protein level of <50%)

concentration at which significant degradation effects on GSPT1 protein are exhibited (FIG. 1) [1, 7]: < 3 nM
concentration at which significant degradation effects on IKZF3 protein are exhibited (FIG. 1) [2, 7]: < 3 nM
pIC50 [3]: 6.30 to 7.00
concentration at which significant degradation effects on IKZF1 protein are exhibited (FIG. 1) [4, 7]: < 3 nM
pIC50 [5]: 6.41
pIC50 [6]: 7.30 to 8.00
Compound: O=C1CCC(N2Cc3cc(CN4CCN(Cc5ccc(-c6cccs6)cc5)CC4)ccc3C2=O)C(=O)N1 (stereo not drawn) [GT-05640, 3-(1-oxo-5-((4-(4-(thiophen-2-yl)benzyl)piperazin-1-yl)methyl)isoindolin-2-yl)piperidine-2,6-dione]
residual substrate protein level, GSPT1 [1]: B (B represents a residual substrate protein level of >50%)
residual substrate protein level, IKZF3 [2]: A (A represents a residual substrate protein level of <50%)
residual substrate protein level, IKZF1 [4]: A (A represents a residual substrate protein level of <50%)

pIC50 [3]: 7.00 to 7.30
pIC50 [5]: 6.15
pIC50 [6]: 7.00 to 7.30
Compound: CC1(C)CCC(CN2CCN(Cc3ccc4c(c3)CN(C3CCC(=O)NC3=O)C4=O)CC2)=C(c2cnco2)C1 (stereo not drawn) [GT-05848, 3-(5-((4-((4,4-dimethyl-2-(oxazol-5-yl)cyclohex-1-en-1-yl)methyl)piperazin-1-yl)methyl)-1-oxoisoindolin-2-yl)piperidine-2,6-dione]
residual substrate protein level, GSPT1 [1]: B (B represents a residual substrate protein level of >50%)
residual substrate protein level, IKZF3 [2]: A (A represents a residual substrate protein level of <50%)
residual substrate protein level, IKZF1 [4]: A (A represents a residual substrate protein level of <50%)
